Here are results for 2 molecules from article PMC3022706 (BMC Microbiology, 2010).

As usually defined, the Km is the substrate concentration at which the rate is half of its maximum.

The target in series [1] is T1, Dld (Cg1027), quinone-dependent D-lactate dehydrogenase (Corynebacterium glutamicum, UniProt Q8NRY8).
T1 construct: PCR fragment printed as 1,020 bp but gene coordinates 955683-957398 imply 571 residues; reverse primer dld2 lacks stop codon; abstract also misprints Cg1067
T1 sequence (Q8NRY8 1-571): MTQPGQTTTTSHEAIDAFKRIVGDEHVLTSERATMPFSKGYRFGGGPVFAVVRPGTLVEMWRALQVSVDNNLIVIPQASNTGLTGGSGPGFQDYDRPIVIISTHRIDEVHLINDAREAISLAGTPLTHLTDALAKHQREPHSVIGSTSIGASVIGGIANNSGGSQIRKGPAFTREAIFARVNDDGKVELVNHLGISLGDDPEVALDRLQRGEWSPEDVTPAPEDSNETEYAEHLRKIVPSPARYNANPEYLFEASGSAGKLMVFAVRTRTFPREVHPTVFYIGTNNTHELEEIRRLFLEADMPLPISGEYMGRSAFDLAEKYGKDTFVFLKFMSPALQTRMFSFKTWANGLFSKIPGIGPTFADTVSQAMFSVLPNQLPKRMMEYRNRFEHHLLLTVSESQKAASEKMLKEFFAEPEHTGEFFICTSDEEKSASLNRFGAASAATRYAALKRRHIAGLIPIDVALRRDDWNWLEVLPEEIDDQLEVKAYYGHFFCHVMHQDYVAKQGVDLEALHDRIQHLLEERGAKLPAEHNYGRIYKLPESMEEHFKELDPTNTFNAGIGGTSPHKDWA
The experiment in a line: absorption spectrum of purified protein ([…] and […] nm). Type of series: binding. The conditions noted are these: bound cofactor, co-purified; non-covalent; identified from spectrum and FAD domain.

Substrate in the series “purified protein”: C[C@@H](O)C(=O)O
The experiment in a line: purified protein. The conditions noted are these: 2,6-dichloroindophenol as electron acceptor, 30 °C, potassium phosphate, pH optimum 7.0, Discussion prints 0.62 mM.

Turning to `Cc1cc2nc3c(=O)[nH]c(=O)nc-3n(C[C@H](O)[C@H](O)[C@H](O)COP(=O)(O)OP(=O)(O)OC[C@H]3O[C@@H](n4cnc5c(N)ncnc54)[C@H](O)[C@@H]3O)c2cc1C` [FAD], the “absorption spectrum of purified protein (375 and 445 nm)” value in series [1] is on record as “These results suggest that D-lactate dehydrogenase from C. glutamicum contains FAD as a bound cofactor”.

B1: Dld (Cg1027), quinone-dependent D-lactate dehydrogenase (Corynebacterium glutamicum ATCC 13032) (protein)
chain: T1 sequence (Q8NRY8 1-571)
Regarding B1, in “purified protein”, the Michaelis constant (Km) was 610 µM.
